Earlier results, collected in patent publication US20240164409A1, “A METHOD OF REDUCING METHANE PRODUCTION IN A RUMINANT ANIMAL” (DIT AgTech Limited, priority 2021, published 2024).
In brackets after ≈: the same amount, converted by molar mass.

Conditions: for Characterised as: water solubility in words

| SMILES | Characterised as | Solubility in water [g/L] |
| --- | --- | --- |
| O=[N+]([O-])OCCCO [3-nitrooxypropanol] | Soluble | – |
| BrC(Br)Br [Bromoform] | Sparingly soluble | 3.2 (≈ 12.7 mM) |
